For data set [1], the target named is T1, DNA-binding protein inhibitor ID-1 (Homo sapiens) (UniProt P41134).
T1 sequence (whole entry): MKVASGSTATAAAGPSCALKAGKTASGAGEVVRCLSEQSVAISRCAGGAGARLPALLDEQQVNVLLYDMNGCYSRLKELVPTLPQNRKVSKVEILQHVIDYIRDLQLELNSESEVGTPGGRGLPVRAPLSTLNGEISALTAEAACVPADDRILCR
The data set can be described thus: Inhibition of ID1 in human U87 cells at 100 uM by luciferase reporter gene assay. It counts as cell-based. Conditions: U-87MG ATCC.

The nature of data set [2]: Cytotoxicity against human U87 cells after 72 hrs by MTT assay. It counts as functional, cell-based, U-87MG ATCC.
Data set [3] can be described thus: Toxicity in brine shrimp larvae assessed as mortality after 24 hrs by microtiter plate analysis. It counts as organism-based. The conditions noted are these: artemia salina, in vivo.
Data set [4] relates to MCF7. The data set can be described thus: Estrogenic activity in human MCF7 cells by luciferase reporter gene assay. It counts as functional, cell-based.
Data set [5] relates to MCF7. The experiment in a line: Estrogenic activity in human MCF7 cells at 5 uM by luciferase reporter gene assay. It counts as functional, cell-based.
A further data set deals with HeLa. The data set can be described thus: Cytotoxicity against human HeLa cells after 72 hrs by MTT assay. It counts as functional, cell-based.
The next data set relates to SMMC-7721. The data set can be described thus: Cytotoxicity against human SMMC7721 cells after 72 hrs by MTT assay. It counts as functional, cell-based. The conditions noted are these: SMMC-7721, 72 h.
Data set [6] is described as follows: Cytotoxicity against mouse LLC cells after 72 hrs by MTT assay. It counts as functional, cell-based. Conditions: Lewis lung carcinoma.
The test system of data set [7] is MCF7. The experiment in a line: Estrogenic activity in human MCF7 cells at 1 uM by luciferase reporter gene assay. It counts as functional, cell-based.
Setting [8] is: Homo sapiens, U-87 MG, 72 h, read-out: IC50.

Molecules are shown by their SMILES. Activity calls are given as the source filed them. No cut-off for these calls is given here. Bounds are passed on as bounds.

`CCCCCCCCCC(=O)O[C@H]1c2cc(OC)c(OC)c(OC)c2-c2c(cc3c(c2OC)OCO3)C[C@H](C)[C@]1(C)O` gave an inhibition in [1] of 46.9%. The concentration for half-maximal inhibition (IC50) in data set [2] (setting [8]) worked out at 58.8 µM.
For the compound `COc1ccc([C@H]2OC[C@]3(O)[C@@H](c4ccc(OC)c(O)c4)OC[C@H]23)cc1O`, the 50% lethal concentration (LC50) at 24 h in data set [3] was above 100 µg/mL.
For the compound `C[C@]12CC[C@@H]3c4ccc(O)cc4CC[C@H]3[C@@H]1CC[C@@H]2O`, in the data set with MCF7 [4], the Activity entry was “Dose-dependent effect”.
`COc1cc2c(c(OC)c1OC)-c1c(cc3c(c1OC)OCO3)C[C@H](C)[C@](C)(O)[C@H]2O` [SCHISANTHEROL A]: the inhibition in [1] was 1%. Further, the IC50 result in data set [2] (u-87mg atcc) is “Not Active”.
`COc1cc([C@H]2OC[C@]3(O)[C@@H](c4ccc(O)c(OC)c4)OC[C@H]23)ccc1O`: in the data set with MCF7 [5], the outcome was Active.
Turning to `CCCCCCCCCCCCCCCC(=O)O[C@H]1c2cc(OC)c(OC)c(OC)c2-c2c(cc3c(c2OC)OCO3)C[C@H](C)[C@]1(C)O`, the inhibition in [1] worked out at 4.8%. Also, the concentration for half-maximal inhibition (IC50) result in data set [2] (u-87mg atcc) was “Not Active”.
`CCCCCC(=O)O[C@H]1c2cc(OC)c(OC)c(OC)c2-c2c(cc3c(c2OC)OCO3)C[C@H](C)[C@]1(C)O` returned an inhibition in [1] of 63.7%. Further, in data set [2] (setting [8]), the IC50 came to 67.4 µM.
Taken in the same sequence, the figures for `CCCCCCCCCCCC(=O)O[C@H]1c2cc(OC)c(OC)c(OC)c2-c2c(cc3c(c2OC)OCO3)C[C@H](C)[C@]1(C)O` were 32.7% and 70 µM.
On to `CCCCCCC(=O)O[C@H]1c2cc(OC)c(OC)c(OC)c2-c2c(cc3c(c2OC)OCO3)C[C@H](C)[C@]1(C)O`, for which the inhibition in [1] was determined as 57.8%. In addition, in data set [2] (setting [8]), the IC50 amounted to 61.7 µM.
Turning to `CCCCCCCC(=O)O[C@H]1c2cc(OC)c(OC)c(OC)c2-c2c(cc3c(c2OC)OCO3)C[C@H](C)[C@]1(C)O`, in data set [1], the inhibition is 57.6%. In [2] (u-87mg atcc), the IC50 entry is on record as “Not Active”.
In the case of `CCCCC(=O)O[C@H]1c2cc(OC)c(OC)c(OC)c2-c2c(cc3c(c2OC)OCO3)C[C@H](C)[C@]1(C)O`, in [1], the inhibition is 36.3%. In [2] (u-87mg atcc), the half-inhibitory concentration (IC50) entry is “Not Active”.
Regarding `COc1c2c(cc3c1-c1c(cc4c(c1OC)OCO4)C[C@H](C)[C@H](C)C3)OCO2` [SCHISANDRIN C], the half-maximal inhibitory concentration (IC50) (in the data set with HeLa; in the data set on SMMC-7721; in [2] (setting [8]); in data set [6]) was above 100 µM each time.
`COc1cc2c(c(OC)c1OC)-c1c(cc(OC)c(OC)c1OC)C[C@](C)(O)[C@@H](C)C2` [SCHIZANDRIN]: the LC50 at 24 h in data set [3] is above 100 µg/mL. The concentration for half-maximal inhibition (IC50) (in the data set with HeLa; in the data set with SMMC-7721; in [2] (setting [8]); in data set [6]) was above 100 µM throughout. In addition, the outcome in the data set on MCF7 [7] was Active.
As for `CCCCCCCCCCCCCC(=O)O[C@H]1c2cc(OC)c(OC)c(OC)c2-c2c(cc3c(c2OC)OCO3)C[C@H](C)[C@]1(C)O`, the inhibition in [1] came to 21.4%. Moreover, the concentration for half-maximal inhibition (IC50) result in data set [2] (u-87mg atcc) is reported as “Not Active”.
`COc1cc([C@H]2OC[C@]3(O)[C@@H](c4ccc(O)c(OC)c4)OC[C@]23O)ccc1O`: the result in the data set on MCF7 [5] was Active.
For the compound `COc1cc2c(c(OC)c1OC)-c1c(cc3c(c1OC)OCO3)C[C@H](C)[C@]1(CO1)[C@H]2OC(=O)c1ccccc1` [SCHISANDRIN A1], the 50% lethal concentration (LC50) at 24 h in [3] came out at 97.5 µg/mL. In addition, the IC50 with HeLa was 50.8 µM; in the data set on SMMC-7721, above 100 µM; in data set [2] (setting [8]), above 100 µM; in [6], above 100 µM.
For `COc1cc(C=O)c(-c2c(C[C@H](C)C(C)=O)cc3c(c2OC)OCO3)c(OC)c1OC`, the inhibition in data set [1] was 46.1%. Also, the half-inhibitory concentration (IC50) result in [2] (u-87mg atcc) is “Not Active”.
In the same order, the values of `CCCC(=O)O[C@H]1c2cc(OC)c(OC)c(OC)c2-c2c(cc3c(c2OC)OCO3)C[C@H](C)[C@]1(C)O` are 36.6% and “Not Active”.
`CC(=O)O[C@@H]1C[C@H](O)[C@@]23CO[C@@H](O)[C@]1(C)[C@@H]2C[C@@H](O)[C@]1(C)[C@@H]3C(=O)[C@H](OC(C)=O)[C@@]2(C)[C@H](c3ccoc3)C[C@H]3O[C@]321` [TOOSENDANIN]: in data set [3], the 50% lethal concentration (LC50) at 24 h was below 1 µg/mL.
